Read-outs that look alike come from different tables or passages of the source.
Biological target: Mcl-1 protein (UniProtKB primary accession number: Q07820) (Homo sapiens, UniProt Q07820)
Test: Inhibition of Mcl-1 by fluorescence polarisation, Method 1
Format: binding
Details: for IC50: read-out: IC50 (M) Mcl-1 FP; for percentage fluorescence polarisation inhibition (Mcl-1 FP), partial inhibitors: test compound at 10 uM
Procedure, shortened: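 Compounds were tested as 11-point serial dilutions at 5% final DMSO against 5 nM Mcl-1 with 1 nM fluorescein-labelled ligand in 10 mM HEPES, 150 mM NaCl, 0.05% Tween 20, pH 7.4. Relative binding potency was read by fluorescence polarisation.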

[1] = fluorescence polarisation, Method 1, or Method 2
[2] = Method 1, or Method 2 where the value is underlined (underlining not visible)
[3] = fluorescence polarisation test, Method 1, or Method 2 where the value is underlined (underlining not visible)

Chain of Mcl-1 protein (Q07820 whole entry): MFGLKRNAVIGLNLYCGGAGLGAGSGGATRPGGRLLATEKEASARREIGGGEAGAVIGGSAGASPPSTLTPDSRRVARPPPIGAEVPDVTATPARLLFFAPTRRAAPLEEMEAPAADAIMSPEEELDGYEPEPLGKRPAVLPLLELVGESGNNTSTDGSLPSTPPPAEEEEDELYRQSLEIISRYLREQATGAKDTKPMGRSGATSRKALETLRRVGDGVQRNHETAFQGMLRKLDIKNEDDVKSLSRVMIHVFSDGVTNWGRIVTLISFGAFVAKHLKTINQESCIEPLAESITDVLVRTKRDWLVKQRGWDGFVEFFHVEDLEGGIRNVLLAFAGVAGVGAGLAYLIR

Compound	IC50 [1] [M]	also measured
CCOC(=O)[C@@H](Cc1ccccc1OCc1ccnc(-c2ccccc2CO)n1)Oc1ncnc2sc(-c3ccc(F)cc3)c(-c3ccc(OCCN(C)C)c(Cl)c3C)c12 [Example 857, ethyl (2R)-2-{[(5Sa)-5-{3-chloro-4-[2-(dimethylamino)ethoxy]-2-methylphenyl}-6-(4-fluorophenyl)thieno[2,3-d]pyrimidin-4-yl]oxy}-3-[2-({2-[2-(hydroxymethyl)phenyl]pyrimidin-4-yl}methoxy)phenyl]propanoate]		percentage fluorescence polarisation inhibition (Mcl-1 FP), partial inhibitors [2]: 77.85% @ 10 uM
CCOC(=O)[C@@H](Cc1ccccc1OCc1ccnn1C(C)C)Oc1ncnc2sc(-c3ccc(F)cc3)c(-c3ccc(OCCN4CCN(C)CC4)c(Cl)c3C)c12 [Example 624, ethyl (2R)-2-{[(5Sa)-5-{3-chloro-2-methyl-4-[2-(4-methylpiperazin-1-yl)ethoxy]phenyl}-6-(4-fluorophenyl)thieno[2,3-d]pyrimidin-4-yl]oxy}-3-(2-{[1-(propan-2-yl)-1H-pyrazol-5-yl]methoxy}phenyl)propanoate]		percentage fluorescence polarisation inhibition, Mcl-1 FP (partial inhibitors, @ 10 uM test compound): 26.95% @ 10 uM
COc1ccccc1CC(Oc1ncnc2sc(-c3ccsc3)c(-c3ccc(O)c(Cl)c3C)c12)C(=O)O [Example 715, (2R)-2-{[(5Sa)-5-(3-chloro-4-hydroxy-2-methylphenyl)-6-(thiophen-3-yl)thieno[2,3-d]pyrimidin-4-yl]oxy}-3-(2-methoxyphenyl)propanoic acid]	1.6e-09	
CCc1sc2ncnc(OC(Cc3ccccc3)C(=O)O)c2c1-c1ccc(OCc2ccncc2)c(Cl)c1C [Example 395, (2R)-2-({(5Sa)-5-[3-chloro-2-methyl-4-(pyridin-4-ylmethoxy)phenyl]-6-ethylthieno[2,3-d]pyrimidin-4-yl}oxy)-3-phenylpropanoic acid]	1.6e-08	
CCN(C)CCOc1ccc(-c2c(-c3ccc(F)cc3)sc3ncnc(OC(Cc4ccccc4OCc4ccnc(-c5ccccc5F)n4)C(=O)OCc4oc(=O)oc4C)c23)c(C)c1Cl [Example 823, (5-methyl-2-oxo-1,3-dioxol-4-yl)methyl (2R)-2-{[(5Sa)-5-(3-chloro-4-{2-[ethyl(methyl)amino]ethoxy}-2-methylphenyl)-6-(4-fluorophenyl)thieno[2,3-d]pyrimidin-4-yl]oxy}-3-(2-{[2-(2-fluorophenyl)pyrimidin-4-yl]methoxy}phenyl)propanoate]		IC50 [3]: 1.98e-08 M
CCOC(=O)[C@@H](Cc1ccccc1OCc1ccnc(-c2ccccc2F)n1)Oc1ncnc2sc(-c3ccc(F)cc3)c(-c3ccc(OCCN(C)C)c(Cl)c3C)c12 [Example 807, ethyl (2R)-2-{[(5Sa)-5-{3-chloro-4-[2-(dimethylamino)ethoxy]-2-methylphenyl}-6-(4-fluorophenyl)thieno[2,3-d]pyrimidin-4-yl]oxy}-3-(2-{[2-(2-fluorophenyl)pyrimidin-4-yl]methoxy}phenyl)propanoate]		percentage fluorescence polarisation inhibition (Mcl-1 FP), partial inhibitors [2]: 52.45% @ 10 uM
Cc1c(-c2c(-c3cc4ccccc4o3)sc3ncnc(OC(Cc4ccccc4)C(=O)O)c23)ccc(OCCN2CCN(C)CC2)c1Cl [Example 496, (2R)-2-{[6-(1-benzofuran-2-yl)-(5Sa)-5-{3-chloro-2-methyl-4-[2-(4-methylpiperazin-1-yl)ethoxy]phenyl}thieno[2,3-d]pyrimidin-4-yl]oxy}-3-phenylpropanoic acid]	2e-07	
COc1ccccc1-c1nccc(COc2ccccc2CC(Oc2ncnc3sc(-c4ccc(F)cc4)c(-c4ccc(OCCN5CC6(CN(C)C6)C5)c(Cl)c4C)c23)C(=O)O)n1 [Example 833, (2R)-2-{[(5Sa)-5-{3-chloro-2-methyl-4-[2-(6-methyl-2,6-diazaspiro[3.3]hept-2-yl)ethoxy]phenyl}-6-(4-fluorophenyl)thieno[2,3-d]pyrimidin-4-yl]oxy}-3-(2-{[2-(2-methoxyphenyl)pyrimidin-4-yl]methoxy}phenyl)propanoic acid]		IC50 [3]: 3.35e-09 M
Cc1c(-c2c(-c3ccc(F)cc3)sc3ncnc(OC(Cc4ccccc4OCc4ccnc(-c5ccccc5F)n4)C(=O)OCC(=O)N(C)C)c23)ccc(OCCN(C)C)c1Cl [Example 818, 2-(dimethylamino)-2-oxoethyl (2R)-2-{[(5Sa)-5-{3-chloro-4-[2-(dimethylamino)ethoxy]-2-methylphenyl}-6-(4-fluorophenyl)thieno[2,3-d]pyrimidin-4-yl]oxy}-3-(2-{[2-(2-fluorophenyl)pyrimidin-4-yl]methoxy}phenyl)propanoate]		IC50 [3]: 1.12e-06 M
CCCCCCCCOC(=O)[C@@H](Cc1ccccc1OCc1ccnc(-c2ccccc2OC)n1)Oc1ncnc2sc(-c3ccc(F)cc3)c(-c3ccc(OCCN4CCN(C)CC4)c(Cl)c3C)c12 [Example 815, octyl (2R)-2-{[(5Sa)-5-{3-chloro-2-methyl-4-[2-(4-methylpiperazin-1-yl)ethoxy]phenyl}-6-(4-fluorophenyl)thieno[2,3-d]pyrimidin-4-yl]oxy}-3-(2-{[2-(2-methoxyphenyl)pyrimidin-4-yl]methoxy}phenyl)propanoate]		percentage fluorescence polarisation inhibition (Mcl-1 FP), partial inhibitors [2]: 19.95% @ 10 uM
CCc1sc2ncnc(OC(Cc3ccccc3)C(=O)O)c2c1-c1ccc(OCCOCCOC)c(Cl)c1C [Example 425, (2R)-2-[((5Sa)-5-{3-chloro-4-[2-(2-methoxyethoxy)ethoxy]-2-methylphenyl}-6-ethylthieno[2,3-d]pyrimidin-4-yl)oxy]-3-phenylpropanoic acid]	9.6e-09	
CC#Cc1sc2ncnc(OC(Cc3ccccc3OC)C(=O)O)c2c1-c1cc(N2CCN(C)CC2)c(OC)c(Cl)c1C [Example 473, (2R)-2-({(5Sa)-5-[3-chloro-4-methoxy-2-methyl-5-(4-methylpiperazin-1-yl)phenyl]-6-(prop-1-yn-1-yl)thieno[2,3-d]pyrimidin-4-yl}oxy)-3-(2-methoxyphenyl)propanoic acid]	5e-08	

More lines, main results first:

IC50 [1] [M]	Compound	also measured
3.7e-07	Cc1c(-c2c(-c3cnn(C)c3)sc3ncnc(OC(Cc4ccccc4)C(=O)O)c23)ccc(OCCN2CCN(C)CC2)c1Cl [Example 513, (2R)-2-{[(5Sa)-5-{3-chloro-2-methyl-4-[2-(4-methylpiperazin-1-yl)ethoxy]phenyl}-6-(1-methyl-1H-pyrazol-4-yl)thieno[2,3-d]pyrimidin-4-yl]oxy}-3-phenylpropanoic acid]	
2.1e-08	Cc1c(-c2c(-c3ccc(F)cc3)sc3ncnc(OC(Cc4ccccc4OCC(F)(F)F)C(=O)O)c23)ccc(OCCN2CCOCC2)c1Cl [Example 657, (2R)-2-{[(5Sa)-5-{3-chloro-2-methyl-4-[2-(morpholin-4-yl)ethoxy]phenyl}-6-(4-fluorophenyl)thieno[2,3-d]pyrimidin-4-yl]oxy}-3-[2-(2,2,2-trifluoroethoxy)phenyl]propanoic acid]	
3.7e-08	COC(=N)c1ccc(-c2sc3ncnc(OC(Cc4ccccc4OC)C(=O)O)c3c2-c2ccc(OCCN3CCN(C)CC3)c(Cl)c2C)o1 [Example 580, (2R)-2-[((5Sa)-5-{3-chloro-2-methyl-4-[2-(4-methylpiperazin-1-yl)ethoxy]phenyl}-6-[5-(methoxycarbonoimidoyl)furan-2-yl]thieno[2,3-d]pyrimidin-4-yl)oxy]-3-(2-methoxyphenyl)propanoic acid]	
2.2e-07	Cc1c(-c2c(-c3ccncc3)sc3ncnc(OC(Cc4ccccc4)C(=O)O)c23)ccc(OCCN2CCN(C)CC2)c1Cl [Example 507, (2R)-2-{[(5Sa)-5-{3-chloro-2-methyl-4-[2-(4-methylpiperazin-1-yl)ethoxy]phenyl}-6-(pyridin-4-yl)thieno[2,3-d]pyrimidin-4-yl]oxy}-3-phenylpropanoic acid]	

— patent US9670227B2, “Thienopyrimidine derivatives, a process for their preparation and pharmaceutical compositions containing them” (LES LABORATOIRES SERVIER, priority 2013, dated 2017)
